The source made the active and inactive calls. The rule behind the calls is not given here.

Assay [1] concerns PC-12. Description: Induction of neurite outgrowth in rat PC12 cells assessed as neurite length at 10 uM. It counts as functional, cell-based.
Assay [2] has as its system PC-12. Nature of the assay: Induction of neurite outgrowth in rat PC12 cells assessed as neurite length. Type of assay: functional, cell-based.

On to `CCCCCCC/C=C/C=C/[C@@H](O)[C@H](CO)NC(=O)CCCCCCCCCCCCCCCCCCC`, for which the result with PC-12 [1] was Active.

Take `CCCCCCC/C=C/C=C/[C@@H](O)[C@H](CO)NC(=O)CCCCCCCCCCCCCCCCCCCCC`: the outcome with PC-12 [1] was Active.

With `CCCCCCCCC/C=C/[C@@H](O)[C@H](CO)NC(=O)CCCCCCCCCCCCCCCCC`, the result in the assay with PC-12 [2] was Active.

Consider `CCCCCCCCC/C=C/[C@@H](O)[C@H](CO)NC(=O)CCCCCCCCCCCCCCCCCCC`, for which the outcome with PC-12 [2] was Active.

The record behind these values is ChEMBL document CHEMBL1159354, “Sphingolipids from Bombycis Corpus 101A and their neurotrophic effects” (J Nat Prod, 2003).
